Test results published in paper PMC7179450, “Primary Human Hepatocytes, But not HepG2 or Balb/c 3T3 Cells, Efficiently Metabolize Salinomycin and Are Resistant to Its Cytotoxicity” (Molecules, 2020).

Key:
rabbits = conditions: cited from earlier work
[1] = system: primary human hepatocytes (PHH); assay: NRU assay (neutral red uptake, lysosomal activity) in primary human hepatocytes; assay type: cell-based; conditions: for EC50: Homo sapiens, Hepatocyte, mean ± SEM, n = 3, read-out: EC50 (effective concentration)
Protocol: (§1) Cryopreserved PHH were purchased from the Primacyt GmbH (Schwerin, Germany). Two different lots were chosen based on CYP activity. The donor was a person. The post-thaw viability was 94.6% for lot HH160531 (used in two repetitions) and 85.0% for lot HH130805. The initial cell viability was determined with the trypan blue exclusion test. The cells were thawed and purified using the Plating and Thawing Kit (Primacyt GmbH). Purified hepatocytes were resuspended in Hepatocyte Plating Medium (Primacyt GmbH) and seeded on collagen-coated 96-well plates at a density of 9 × 10^5 cell/mL and incubated at 37 °C with 5% CO2. After 6 h of incubation, the medium was removed and the cells were washed with PBS. Then Human Hepatocyte Maintenance Medium (HHMM) (Primacyt GmbH) with the studied drugs was added to hepatocytes (100 µL/well). The culture conditions were kept according to the manufacturer’s protocol.
(§2) The concentration ranges of the drugs were chosen according to their solubility and their plasma level. Each drug was dissolved in DMSO. The final concentration of DMSO was 0.1% or 0.2% in the medium for both samples and corresponding controls. […] All drug solutions in medium were freshly prepared and protected from light. SAL was tested in seven concentrations from 0.39 to 25 µg/mL. Tiamulin was added in two concentrations (1 and 10 µg/mL) or just one concentration (1 µg/mL) to cell lines or human hepatocytes, respectively. Prednisolone was tested in one concentration—1 µg/mL independent of the type of cells. […] The cytotoxicity was assessed after 24 and 48 h of exposure of cell lines or after 12 and 24 h exposure of PHH. […]
The assay, based on staining of living cells by neutral red (NR), was performed according to the protocol described by Borenfreund and Puerner. […] After 10 min of shaking, the absorbance of the dissolved NR was measured at 540 nm using a blank as a reference. Cytotoxicity was expressed as a percentage of the negative control (0.1% or 0.2% DMSO).

cell lines = conditions: cited from earlier work
[2] = system: primary human hepatocytes (PHH); assay: MTT assay, cytotoxicity in primary human hepatocytes; assay type: cell-based; conditions: Hepatocyte, mean ± SEM, n = 3, read-out: EC50 (effective concentration)
Protocol: as §1, with “The culture conditions were kept according to the manufacturer’s protocol.” left out
(§3) The concentration ranges of the drugs were chosen according to their solubility and their plasma level. […] The cytotoxicity was assessed after 24 and 48 h of exposure of cell lines or after 12 and 24 h exposure of PHH. […]
The metabolic activity of living cells was assessed by measuring the activity of dehydrogenases. […] The plate was shaken for 15 min at room temperature and transferred to a microplate reader to measure the absorbance at 570 nm, using a blank as a reference. Cytotoxicity was expressed as a percentage of the negative control (0.1% or 0.2% DMSO).

[3] = mouse, in vivo; cited from earlier work
HepG2 cells [4] = assay: LDH leakage assay in HepG2; assay type: cell-based; conditions: Homo sapiens, mean ± SEM, n = 3, read-out: EC50 (effective concentration)
Protocol: The HepG2 cell line was purchased from the American Type Culture Collection (ATCC® HB-8065™). The cells were cultured in Minimum Essential Medium Eagle (MEME) (Sigma–Aldrich Co. (St. Louis, MO, USA)). Normal murine embryonic fibroblasts, Balb/c 3T3 clone A31 cell line (gift from Department of Swine Diseases of the National Veterinary Research Institute in Pulawy) was cultured in Dulbecco’s Modified Eagle’s Medium (DMEM) (Invitrogen Corporations (Paisley, UK)). The media were supplemented with 10% BCS (Balb/c 3T3), 10% FBS (HepG2), 1% L-glutamine, and 1% antibiotic solution. The cells were maintained in 75 cm^2 cell culture flasks in humidified incubator at 37 °C, in an atmosphere of 5% CO2. […] The initial cell viability was determined with the trypan blue exclusion test. […]
as §3
The integrity of the plasma membrane was assessed through the test of lactate dehydrogenase (LDH) release, which was monitored using a commercially available Cytotoxicity Detection Kit (LDH) (Roche Diagnostics, Basel, Switzerland). […] The absorbance was measured at 492 nm in a microplate reader using a blank as a reference.

HepG2 cells [5] = assay: TPC assay in HepG2; assay type: cell-based, human; conditions: for EC50: Homo sapiens, read-out: EC50 (effective concentration)
Protocol: The HepG2 cell line was purchased from the American Type Culture Collection (ATCC® HB-8065™). The cells were cultured in Minimum Essential Medium Eagle (MEME) (Sigma–Aldrich Co. (St. Louis, MO, USA)). Normal murine embryonic fibroblasts, Balb/c 3T3 clone A31 cell line (gift from Department of Swine Diseases of the National Veterinary Research Institute in Pulawy) was cultured in Dulbecco’s Modified Eagle’s Medium (DMEM) (Invitrogen Corporations (Paisley, UK)). The media were supplemented with 10% BCS (Balb/c 3T3), 10% FBS (HepG2), 1% L-glutamine, and 1% antibiotic solution. The cells were maintained in 75 cm^2 cell culture flasks in humidified incubator at 37 °C, in an atmosphere of 5% CO2. The medium was refreshed every two or three days and the cells were trypsinized by 0.25% trypsin–0.02% EDTA after reaching 70–80% confluence. The initial cell viability was determined with the trypan blue exclusion test. Single cell suspensions were prepared and adjusted to a density of 2 × 10^5 cell/mL (HepG2) and 1 × 10^5 cell/mL (Balb/c 3T3). The cell suspension was transferred to 96-well plates (100 µL/well) and incubated for 24 h before exposure to the studied drugs.
as §2, with “respectively.” for “respectively. Prednisolone was tested in one concentration—1 µg/mL independent of the type of cells.”
The assay was based on staining total cellular protein [14]. […] The absorbance was measured at 595 nm in a microplate reader using blank as a reference. Cytotoxicity was expressed as a percentage of the negative control (0.1% or 0.2% DMSO).

In the case of `CC[C@@H](C(=O)[C@@H](C)[C@@H](O)[C@H](C)[C@@H]1O[C@@H]([C@@H](CC)C(=O)O)CC[C@@H]1C)[C@H]1O[C@]2(C=C[C@@H](O)[C@]3(CC[C@@](C)([C@H]4CC[C@](O)(CC)[C@H](C)O4)O3)O2)[C@H](C)C[C@@H]1C` [SAL, salinomycin], the LD50 (rabbits) is listed as 21 mg/kg b.w, the EC50 ([1]; 12 h exposure) is listed as 20.4 ± 1.9 µg/mL and the EC50 ([1]; 24 h exposure) is listed as 19.8 ± 1.6 µg/mL. The “concentration at which SAL first affected lysosomal activity” value ([1]; after 24 h (Figure S1)) was 1.56 µg/mL, the EC50 (cell lines) was 0.1 to 30 µM and the “EC50 values, cytotoxicity to cell lines” value (cell lines) was 0.08 to 22.5 µg/mL. The EC50 ([2]; 12 h exposure) was over 25 µg/mL, the EC50 ([2]; 24 h exposure) was over 25 µg/mL and the “unchanged SAL in excreta, share of administered dose” value [3] was 2%. For the same compound, the EC50 (HepG2 cells [4]; 24 h exposure) was over 25 µg/mL, the EC50 (HepG2 cells [4]; 48 h exposure) was 13.8 ± 0.2 µg/mL and the “lowest concentration with significant effect on total protein content” value (HepG2 cells [5]; HepG2, 24 h, SAL alone or in both drug combinations (Figure S2)) was 0.39 µg/mL. For the same compound, the EC50 (HepG2 cells [5]; HepG2, 24 h) was 13.3 ± 2.5 µg/mL and the EC50 (HepG2 cells [5]; HepG2, 48 h) was 11.3 ± 1.3 µg/mL.
